For 13 compounds, IC50 results are on record in EP4660184A1 (Eurofarma Laboratórios S.A., priority 2023, dated 2024).

Assay [1] concerns the target T1, human sodium channels Nav 1.8 (Homo sapiens, UniProt Q9Y5Y9).
T1 construct: expressed in transfected cells
Nature of the assay: Automated whole-cell voltage-clamp (ScreenPatch 384P) sodium current block, Nav 1.8. It counts as cell-based. Conditions: CHO cells stably expressing human Nav 1.8; inactivation step -40 mV for 8 seconds, test step 10 mV (TP1A); exposure at least five minutes; room temperature; mean if two or more assays; read-out: Nav1.8 IC50. In short, it runs like this:
(§1)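 CHO cells stably expressing human Nav1.7 or Nav1.8 were recorded by automated whole-cell clamp with ≥5 min compound exposure, eight concentrations, at room temperature, pH 7.4 external. From -100 mV, cells were held at -40 mV for 8 s, then -100 mV for 20 ms, then a test pulse at 10 mV (Nav1.8) or 0 mV (Nav1.7), at 0.05 Hz. Peak current % block was fitted to give IC50, averaged across assays.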

Assay [2] deals with T2, human sodium channels Nav 1.7 (Homo sapiens, UniProt Q15858).
T2 construct: expressed in transfected cells
T2 sequence (Q15858 whole entry): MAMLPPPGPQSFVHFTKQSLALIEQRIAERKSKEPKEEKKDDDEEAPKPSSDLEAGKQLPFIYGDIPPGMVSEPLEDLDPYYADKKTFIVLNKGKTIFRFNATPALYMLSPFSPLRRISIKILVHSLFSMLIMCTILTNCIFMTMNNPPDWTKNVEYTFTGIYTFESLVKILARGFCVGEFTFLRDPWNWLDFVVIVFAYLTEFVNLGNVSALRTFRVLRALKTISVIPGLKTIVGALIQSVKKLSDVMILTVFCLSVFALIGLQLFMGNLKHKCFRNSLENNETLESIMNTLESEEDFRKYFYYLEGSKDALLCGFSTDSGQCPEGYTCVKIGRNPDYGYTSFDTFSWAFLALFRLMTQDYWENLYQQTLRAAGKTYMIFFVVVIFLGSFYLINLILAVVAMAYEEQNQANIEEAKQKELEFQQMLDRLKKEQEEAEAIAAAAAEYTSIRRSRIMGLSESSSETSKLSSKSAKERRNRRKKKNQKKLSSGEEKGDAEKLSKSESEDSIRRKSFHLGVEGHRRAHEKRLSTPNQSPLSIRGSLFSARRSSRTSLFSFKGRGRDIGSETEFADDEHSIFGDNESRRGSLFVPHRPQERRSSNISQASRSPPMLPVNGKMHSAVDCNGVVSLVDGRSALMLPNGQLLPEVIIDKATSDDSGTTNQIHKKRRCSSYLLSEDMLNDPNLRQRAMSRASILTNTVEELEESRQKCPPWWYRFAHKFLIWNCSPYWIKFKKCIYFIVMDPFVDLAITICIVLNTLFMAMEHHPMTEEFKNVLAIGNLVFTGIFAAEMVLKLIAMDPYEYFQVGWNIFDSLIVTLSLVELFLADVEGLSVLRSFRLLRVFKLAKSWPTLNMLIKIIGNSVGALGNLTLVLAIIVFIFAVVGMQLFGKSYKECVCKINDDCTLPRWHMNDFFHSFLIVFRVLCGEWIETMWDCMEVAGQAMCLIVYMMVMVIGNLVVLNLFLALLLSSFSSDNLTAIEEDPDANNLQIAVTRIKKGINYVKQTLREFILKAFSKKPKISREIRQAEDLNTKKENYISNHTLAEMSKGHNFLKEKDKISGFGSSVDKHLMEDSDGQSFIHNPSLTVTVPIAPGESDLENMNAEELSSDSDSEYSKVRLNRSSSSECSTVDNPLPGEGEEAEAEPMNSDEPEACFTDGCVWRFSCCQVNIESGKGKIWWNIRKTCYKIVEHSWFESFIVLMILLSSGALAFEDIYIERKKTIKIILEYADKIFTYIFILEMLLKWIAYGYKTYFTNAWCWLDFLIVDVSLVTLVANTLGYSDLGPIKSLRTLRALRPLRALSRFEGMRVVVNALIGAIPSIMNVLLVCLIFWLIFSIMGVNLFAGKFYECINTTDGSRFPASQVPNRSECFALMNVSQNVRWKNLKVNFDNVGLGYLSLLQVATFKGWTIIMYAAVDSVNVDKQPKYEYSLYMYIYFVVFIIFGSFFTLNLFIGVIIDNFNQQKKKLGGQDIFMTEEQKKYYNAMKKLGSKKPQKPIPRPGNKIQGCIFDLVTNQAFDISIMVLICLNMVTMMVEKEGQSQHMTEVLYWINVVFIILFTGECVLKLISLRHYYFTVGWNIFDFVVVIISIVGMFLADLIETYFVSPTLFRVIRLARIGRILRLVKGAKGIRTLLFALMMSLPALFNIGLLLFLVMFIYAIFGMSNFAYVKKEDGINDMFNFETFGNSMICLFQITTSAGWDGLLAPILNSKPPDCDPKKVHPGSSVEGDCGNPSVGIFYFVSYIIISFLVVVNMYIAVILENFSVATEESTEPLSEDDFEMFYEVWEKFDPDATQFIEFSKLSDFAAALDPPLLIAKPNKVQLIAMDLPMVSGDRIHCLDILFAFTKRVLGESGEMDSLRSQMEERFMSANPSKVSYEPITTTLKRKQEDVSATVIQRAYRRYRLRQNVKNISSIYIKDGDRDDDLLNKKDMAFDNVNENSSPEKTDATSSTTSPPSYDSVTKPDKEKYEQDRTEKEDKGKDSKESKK
The assay is described as follows: Automated whole-cell voltage-clamp (ScreenPatch 384P) sodium current block, Nav 1.7. The note with it: CHO cells stably expressing human Nav 1.7; inactivation step -40 mV for 8 seconds, test step 0 mV (TP1A); exposure at least five minutes; room temperature; mean if two or more assays; read-out: Nav1.7 IC50. It counts as cell-based. An outline of the steps:
as §1

T1 sequence (Q9Y5Y9 whole entry): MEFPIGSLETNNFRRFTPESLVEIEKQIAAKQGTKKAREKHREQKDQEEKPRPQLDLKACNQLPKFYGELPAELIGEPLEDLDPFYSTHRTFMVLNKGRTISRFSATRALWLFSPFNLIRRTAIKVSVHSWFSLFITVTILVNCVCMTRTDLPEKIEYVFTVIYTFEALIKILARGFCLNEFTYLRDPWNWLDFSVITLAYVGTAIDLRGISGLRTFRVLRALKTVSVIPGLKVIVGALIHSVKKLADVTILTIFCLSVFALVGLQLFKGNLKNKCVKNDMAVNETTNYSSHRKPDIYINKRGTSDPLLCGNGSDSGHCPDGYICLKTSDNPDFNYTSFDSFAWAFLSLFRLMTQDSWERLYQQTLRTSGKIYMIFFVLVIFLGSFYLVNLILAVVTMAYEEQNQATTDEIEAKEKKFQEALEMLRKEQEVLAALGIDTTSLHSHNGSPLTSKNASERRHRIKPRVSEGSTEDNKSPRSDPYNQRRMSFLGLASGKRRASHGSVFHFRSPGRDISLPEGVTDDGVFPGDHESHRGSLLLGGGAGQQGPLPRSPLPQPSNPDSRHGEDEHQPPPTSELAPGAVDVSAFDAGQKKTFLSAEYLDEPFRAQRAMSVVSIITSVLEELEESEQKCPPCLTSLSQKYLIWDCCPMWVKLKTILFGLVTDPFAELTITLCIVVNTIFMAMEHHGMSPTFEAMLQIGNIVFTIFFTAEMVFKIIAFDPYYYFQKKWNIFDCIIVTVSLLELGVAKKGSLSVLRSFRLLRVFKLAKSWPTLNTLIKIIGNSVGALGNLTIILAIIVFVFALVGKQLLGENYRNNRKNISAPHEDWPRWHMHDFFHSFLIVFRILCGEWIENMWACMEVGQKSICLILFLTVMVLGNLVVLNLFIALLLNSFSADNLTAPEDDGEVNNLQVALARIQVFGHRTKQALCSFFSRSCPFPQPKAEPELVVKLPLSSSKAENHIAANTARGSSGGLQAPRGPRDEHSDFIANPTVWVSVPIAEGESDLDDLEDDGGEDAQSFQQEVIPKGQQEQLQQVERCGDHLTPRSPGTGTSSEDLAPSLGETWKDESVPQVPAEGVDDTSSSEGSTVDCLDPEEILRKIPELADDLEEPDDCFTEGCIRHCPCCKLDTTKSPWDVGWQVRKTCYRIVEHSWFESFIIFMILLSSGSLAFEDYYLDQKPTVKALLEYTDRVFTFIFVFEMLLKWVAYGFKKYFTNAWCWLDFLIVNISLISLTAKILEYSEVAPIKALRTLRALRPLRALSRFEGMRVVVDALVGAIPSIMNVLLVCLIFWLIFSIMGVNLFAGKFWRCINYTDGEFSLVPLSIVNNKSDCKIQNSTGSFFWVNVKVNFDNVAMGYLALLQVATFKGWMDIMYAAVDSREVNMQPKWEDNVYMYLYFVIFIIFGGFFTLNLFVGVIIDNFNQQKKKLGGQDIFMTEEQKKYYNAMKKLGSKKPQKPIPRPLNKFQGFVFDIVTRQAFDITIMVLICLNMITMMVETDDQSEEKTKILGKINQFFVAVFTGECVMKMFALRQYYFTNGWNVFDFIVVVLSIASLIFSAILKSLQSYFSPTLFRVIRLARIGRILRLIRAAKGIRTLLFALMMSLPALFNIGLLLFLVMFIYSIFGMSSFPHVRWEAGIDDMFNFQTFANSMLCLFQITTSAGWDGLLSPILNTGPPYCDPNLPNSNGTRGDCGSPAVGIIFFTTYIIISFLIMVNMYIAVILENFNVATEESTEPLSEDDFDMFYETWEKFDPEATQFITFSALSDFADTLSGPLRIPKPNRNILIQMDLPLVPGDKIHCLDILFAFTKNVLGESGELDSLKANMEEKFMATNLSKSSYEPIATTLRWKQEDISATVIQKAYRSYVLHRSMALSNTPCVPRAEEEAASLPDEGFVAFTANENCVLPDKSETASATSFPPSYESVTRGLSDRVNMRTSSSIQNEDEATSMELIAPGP

On to `COc1ccc(F)c(CONC(=O)c2cncc(-c3ccc(OCCC4CN(C)C4)cc3)n2)c1` [Compound 27, N-((2-fluoro-5-methoxybenzyl)oxy)-6-(4-(2-(1-methylazetidine-3-yl)ethoxy)phenyl)pyrazine-2-carboxamide], for which the IC50 in assay [1] was < 0.5 µM; in assay [2] it was > 1 µM.

Take `CCOc1ccc(-c2cncc(C(=O)NOCc3ccccc3F)n2)cc1` [Compound 4, 6-(4-ethoxyphenyl)-N-((2-fluorobenzyl)oxy)pyrazine-2-carboxamide]: the IC50 in assay [1] is < 0.5 µM; in assay [2] it was 0.5 to 1 µM.

For `CCOc1ccc(-c2cncc(C(=O)NOCc3cc(OC)ccc3F)c2)cn1` [Compound 108], the IC50 in assay [1] and in assay [2] was > 1 µM in each case.

Turning to `COc1cnc(F)c(CONC(=O)c2cccc(-c3ccc(OC(F)F)nc3)n2)c1` [Compound 114], the results for the 50% inhibitory concentration (IC50) in assay [1] and in assay [2] were 0.5 to 1 µM and > 1 µM, respectively.

Regarding `COc1cnc(F)c(CONC(=O)c2nc(-c3ccc(OC(F)F)nc3)cnc2N)c1` [Compound 120], the IC50 in assay [1] and in assay [2] was > 1 µM each time.

On to `[2H]C([2H])([2H])Oc1ccc(F)c(CONC(=O)c2cncc(-c3ccc(OCC)nc3)n2)c1` [Compound 55, 6-(6-ethoxypyridine-3-yl)-N-((2-fluoro-5-(methoxy-d3)benzyl)oxy)pyrazine-2-carboxamide], for which the IC50 was < 0.5 µM in assay [1] and 0.5 to 1 µM in assay [2].

For `CCOc1ccc(-c2cncc(C(=O)NOCc3ccnn3C(C)C)n2)cn1` [Compound 64], the IC50 in assay [1] and in assay [2] was > 1 µM throughout.

As for `COc1ccc(F)c(CONC(=O)c2ccnc(-c3ccc(OC(F)F)nc3)n2)c1` [Compound 118], the IC50 in assay [1] is < 0.5 µM; in assay [2], > 1 µM.

For the compound `[2H]C([2H])([2H])COc1ccc(-c2cncc(C(=O)NOCc3cc(OC([2H])([2H])[2H])ccc3F)n2)cn1` [Compound 52, 6-(6-(ethoxy-2,2,2-d3)pyridine-3-yl)-N-((2-fluoro-5-(methoxy-d3)benzyl)oxy)pyrazine-2-carboxamide], the IC50 in assay [1] and in assay [2] was > 1 µM each time.

On to `CCOc1ccc(-c2cncc(C(=O)NOCc3[nH]ccc3C)n2)cn1` [Compound 67, 6-(6-ethoxypyridine-3-yl)-N-((3-methyl-1H-pyrrole-2-yl)methoxy)pyrazine-2-carboxamide], for which the IC50 in assay [1] was < 0.5 µM; in assay [2], > 1 µM.

Take `COc1ccc(F)c(CONC(=O)c2cncc(-c3ccc(OC(C)C)cc3)n2)c1` [Compound 3, N-((2-fluoro-5-methoxybenzyl)oxy)-6-(4-isopropoxyphenyl)pyrazine-2-carboxamide]: the IC50 in assay [1] and in assay [2] was < 0.5 µM in each case.

On to `CCOc1ccc(-c2cccc(C(=O)NOCc3cc(OC)ccc3F)n2)cn1` [Compound 106], for which the IC50 in assay [1] and in assay [2] was > 1 µM throughout.

On to `CCOc1ccc(-c2cncc(C(=O)NOCc3cc(N(C)C)ccc3F)n2)cn1` [Compound 40, N-((5-(dimethylamino)-2-fluorobenzyl)oxy)-6-(6-ethoxypyridine-3-yl)pyrazine-2-carboxamide], for which the IC50 in assay [1] was < 0.5 µM; in assay [2], > 1 µM.

The IC50 is the concentration that gives 50% inhibition.
